Test results published in patent publication EP3928779A1 (Chugai Seiyaku Kabushiki Kaisha, priority 2014, dated 2016).

System: rat small-intestinal brush border membrane vesicles
Experiment: Inhibitory effect on 33PO4 uptake into rat small-intestinal brush border membrane vesicles (rapid filtration method)
Assay type: biochemical
Conditions: 33PO4 uptake into rat small-intestinal BBMVs; test compound 1 µM; reacted for 60 seconds
In short: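 Uptake of ^33PO4 was measured by rapid filtration and liquid scintillation counting of filter-retained vesicles, after quenching with ice-cold 110 mM NaCl/1 mM KH2PO4/10 mM HEPES pH 7.5. Vesicles were brush border membranes from the upper small intestine of female Wistar rats aged 4–5 weeks.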

SMILES | Rate of uptake inhibition (%) (1 µM)
C[C@]12CCCN1N(Cc1ccc(Cl)cc1)C(=O)C(C(=O)Nc1ccc(C(F)(F)F)cc1-c1cc(C(F)(F)F)ncn1)=C2O [Example 182] | 86%
COC(=O)c1cccc(CN2C(=O)C(C(=O)Nc3ccc(C(F)(F)F)cc3-c3cc(C(F)(F)F)ncn3)=C(O)[C@@]3(C)CCCN23)c1 [Example 183] | 82%
C[C@]12CCCN1N(Cc1ccc(F)c(Br)c1)C(=O)C(C(=O)Nc1ccc(C(F)(F)F)cc1-c1cc(C(F)(F)F)ncn1)=C2O [Example 184] | 79%
Cc1ccccc1CN1C(=O)C(C(=O)Nc2ccc(C(F)(F)F)cc2-c2cc(C(F)(F)F)ncn2)=C(O)[C@@]2(C)CCCN12 [Example 185] | 83%
Cc1cccc(CN2C(=O)C(C(=O)Nc3ccc(C(F)(F)F)cc3-c3cc(C(F)(F)F)ncn3)=C(O)[C@@]3(C)CCCN23)c1 [Example 186] | 88%
Cc1ccc(CN2C(=O)C(C(=O)Nc3ccc(C(F)(F)F)cc3-c3cc(C(F)(F)F)ncn3)=C(O)[C@@]3(C)CCCN23)cc1 [Example 187] | 80%
C[C@]12CCCN1N(Cc1ccccc1)C(=O)C(C(=O)Nc1ccc(C(F)(F)F)cc1-c1cc(C(F)(F)F)ncn1)=C2O [Example 188] | 93%
C[C@]12CCCN1N(Cc1cccc(OC(F)(F)F)c1)C(=O)C(C(=O)Nc1ccc(C(F)(F)F)cc1-c1cc(C(F)(F)F)ncn1)=C2O [Example 189] | 73%
C[C@]12CCCN1N(Cc1cc(F)cc(F)c1)C(=O)C(C(=O)Nc1cc(F)c(Br)c(F)c1)=C2O [Example 190] | 84%
C[C@]12CCCN1N(Cc1ccc(F)c(F)c1)C(=O)C(C(=O)Nc1cc(F)c(Br)c(F)c1)=C2O [Example 191] | 87%
C[C@]12CCCN1N(Cc1ccc(F)cc1F)C(=O)C(C(=O)Nc1cc(F)c(Br)c(F)c1)=C2O [Example 192] | 88%
C[C@]12CCCN1N(Cc1cc(F)ccc1F)C(=O)C(C(=O)Nc1cc(F)c(Br)c(F)c1)=C2O [Example 193] | 82%
C[C@]12CCCN1N(Cc1cc(F)c(F)cc1F)C(=O)C(C(=O)Nc1cc(F)c(Br)c(F)c1)=C2O [Example 194] | 80%
Cc1cccc(CN2C(=O)C(C(=O)Nc3cc(F)c(Br)c(F)c3)=C(O)[C@@]3(C)CCCN23)c1F [Example 195] | 76%
C[C@]12CCCN1N(Cc1cc(F)c(F)c(F)c1)C(=O)C(C(=O)Nc1cc(F)c(Br)c(F)c1)=C2O [Example 197] | 82%
C[C@]12CCCN1N(Cc1cccc(Cl)c1F)C(=O)C(C(=O)Nc1ccc(C(F)(F)F)cc1-c1ccc(C(F)(F)F)nc1)=C2O [Example 198] | 75%
C[C@]12CCCN1N(Cc1ccc(F)cc1)C(=O)C(C(=O)Nc1ccc(C(F)(F)F)cc1-c1ccc(C(F)(F)F)nc1)=C2O [Example 199] | 79%
C[C@]12CCCN1N(Cc1ccccc1F)C(=O)C(C(=O)Nc1ccc(C(F)(F)F)cc1-c1ccc(C(F)(F)F)nc1)=C2O [Example 200] | 80%
C[C@]12CCCN1N(Cc1cccc(F)c1Cl)C(=O)C(C(=O)Nc1ccc(C(F)(F)F)cc1-c1ccc(C(F)(F)F)nc1)=C2O [Example 201] | 77%
COc1cc(CN2C(=O)C(C(=O)Nc3ccc(C(F)(F)F)cc3-c3ccc(C(F)(F)F)nc3)=C(O)[C@@]3(C)CCCN23)cc(OC)c1 [Example 202] | 75%
C[C@]12CCCN1N(Cc1c(F)cccc1F)C(=O)C(C(=O)Nc1ccc(C(F)(F)F)cc1-c1ccc(C(F)(F)F)nc1)=C2O [Example 203] | 91%
C[C@]12CCCN1N(Cc1c(F)cccc1Cl)C(=O)C(C(=O)Nc1ccc(C(F)(F)F)cc1-c1ccc(C(F)(F)F)nc1)=C2O [Example 204] | 87%
Cc1cccc(CN2C(=O)C(C(=O)Nc3ccc(C(F)(F)F)cc3-c3ccc(C(F)(F)F)nc3)=C(O)[C@@]3(C)CCCN23)c1F [Example 205] | 86%
C[C@]12CCCN1N(Cc1cccc(F)c1)C(=O)C(C(=O)Nc1ccc(C(F)(F)F)cc1-c1ccc(C(F)(F)F)nc1)=C2O [Example 206] | 76%
C[C@]12CCCN1N(Cc1ccccc1F)C(=O)C(C(=O)Nc1ccc(C(F)(F)F)cc1-c1cc(C(F)(F)F)ncn1)=C2O [Example 207] | 73%
C[C@]12CCCN1N(Cc1ccc(F)cc1)C(=O)C(C(=O)Nc1ccc(C(F)(F)F)cc1-c1cc(C(F)(F)F)ncn1)=C2O [Example 208] | 90%

SMILES | Rate of uptake inhibition (%) (1 µM)
C[C@]12CCCN1N(Cc1cccc(Cl)c1F)C(=O)C(C(=O)Nc1ccc(C(F)(F)F)cc1-c1cc(C(F)(F)F)ncn1)=C2O [Example 209] | 76%
C[C@]12CCCN1N(Cc1c(F)cccc1Cl)C(=O)C(C(=O)Nc1ccc(C(F)(F)F)cc1-c1cc(C(F)(F)F)ncn1)=C2O [Example 210] | 71%
C[C@]12CCCN1N(Cc1cc(Cl)ccc1F)C(=O)C(C(=O)Nc1ccc(C(F)(F)F)cc1-c1cc(C(F)(F)F)ncn1)=C2O [Example 211] | 72%
C[C@]12CCCN1N(Cc1c(F)cccc1F)C(=O)C(C(=O)Nc1ccc(C(F)(F)F)cc1-c1cc(C(F)(F)F)ncn1)=C2O [Example 212] | 98%
C[C@]12CCCN1N(Cc1cc(F)cc(F)c1)C(=O)C(C(=O)Nc1ccc(C(F)(F)F)cc1-c1cc(C(F)(F)F)ncn1)=C2O [Example 213] | 79%
C[C@]12CCCN1N(Cc1ccc(F)c(F)c1)C(=O)C(C(=O)Nc1ccc(C(F)(F)F)cc1-c1cc(C(F)(F)F)ncn1)=C2O [Example 214] | 91%
Cc1cccc(CN2C(=O)C(C(=O)Nc3ccc(C(F)(F)F)cc3-c3cc(C(F)(F)F)ncn3)=C(O)[C@@]3(C)CCCN23)c1F [Example 215] | 86%
C[C@]12CCCN1N(Cc1ccccc1C#N)C(=O)C(C(=O)Nc1cc(F)c(Br)c(F)c1)=C2O [Example 218] | 82%
C[C@]12CCCN1N(Cc1ccccc1Cl)C(=O)C(C(=O)Nc1cc(F)c(Br)c(F)c1)=C2O [Example 219] | 95%
C[C@]12CCCN1N(Cc1cccc(C#N)c1)C(=O)C(C(=O)Nc1cc(F)c(Br)c(F)c1)=C2O [Example 220] | 96%
C[C@]12CCCN1N(Cc1cccc(Cl)c1)C(=O)C(C(=O)Nc1cc(F)c(Br)c(F)c1)=C2O [Example 221] | 82%
C[C@]12CCCN1N(Cc1ccc(C#N)cc1)C(=O)C(C(=O)Nc1cc(F)c(Br)c(F)c1)=C2O [Example 222] | 97%
C[C@]12CCCN1N(Cc1ccc(Cl)cc1)C(=O)C(C(=O)Nc1cc(F)c(Br)c(F)c1)=C2O [Example 223] | 77%
C[C@]12CCCN1N(CCCC(F)(F)F)C(=O)C(C(=O)Nc1ccc(C(F)(F)F)cc1-c1cc(C(F)(F)F)ncn1)=C2O [Example 234, (4aR)-4-Hydroxy-4a-methyl-2-oxo-1-(4,4,4-trifluorobutyl)-N-[4-(trifluoromethyl)-2-[6-(trifluoromethyl)pyrimidin-4-yl]henyl]-6,7-dihydro-5H-pyrrolo[1,2-b]pyridazine-3-carboxamide] | 73%
CCOC(=O)CCCCCCN1C(=O)C(C(=O)Nc2ccc(C(F)(F)F)cc2-c2ccc(C(F)(F)F)nc2)=C(O)[C@@]2(C)CCCN12 [Example 235, Ethyl 7-[(4aR)-4-hydroxy-4a-methyl-2-oxo-3-[[4-(trinuoromethyl)-2-[6-(trifluoromethyl)pyridin-3-yl]phenyl]carbamoyl]-6,7-dihydro-5H-pyrrolo[1,2-b]pyridazin-1-yl]heptanoate] | 65%
COCCOCCOCCCCCCCCN1C(=O)C(C(=O)Nc2ccc(C(F)(F)F)cc2-c2cc(C(F)(F)F)ncn2)=C(O)[C@@]2(C)CCCN12 [Example 236, (4aR)-4-Hydroxy-1-[8-[2-(2-methoxyethoxy)ethoxy]octyl]-4a-methyl-2-oxo-N-[4-(trifluoromethyl)-2-[6-(trifluoromethyl)pyrimidine-4-yl]phenyl]-6,7-dihydro-5H-pyrrolo[1,2-b]pyridazine-3-carboxamide] | 60%
CN1[C@@H](C(C)(C)C)C(O)=C(C(=O)Nc2ccc(Cl)cc2-c2cc(C(F)(F)F)ncn2)C(=O)N1Cc1cccc(F)c1F [Example 237] | 51%
CN1[C@@H](C(C)(C)C)C(O)=C(C(=O)Nc2ccc(C(F)(F)F)cc2-c2ccc(C(F)(F)F)nc2)C(=O)N1Cc1cccc(F)c1F [Example 238] | 47%
CN1[C@@H](C(C)(C)C)C(O)=C(C(=O)Nc2ccc(Cl)cc2-c2ccc(C(F)(F)F)nc2)C(=O)N1Cc1cccc(F)c1F [Example 239] | 48%
CN1[C@@H](C(C)(C)C)C(O)=C(C(=O)Nc2cc(F)c(Br)c(F)c2)C(=O)N1Cc1cccc(F)c1F [Example 240] | 72%
Cc1nc(NC(=O)C2=C(O)[C@H](C(C)(C)C)N(C)N(Cc3cccc(F)c3F)C2=O)ccc1Br [Example 241] | 86%
CN1[C@@H](C(C)(C)C)C(O)=C(C(=O)Nc2ccc(Br)c(C(F)(F)F)n2)C(=O)N1Cc1cccc(F)c1F [Example 242] | 69%
CN1[C@@H](C(C)(C)C)C(O)=C(C(=O)Nc2ccc(Br)c(C(F)(F)F)c2)C(=O)N1Cc1cccc(F)c1F [Example 243] | 63%
CN1[C@@H](C(C)(C)C)C(O)=C(C(=O)Nc2cccc(C(F)(F)F)n2)C(=O)N1Cc1cccc(F)c1F [Example 244] | 71%
CCN1[C@@H](C(C)(C)C)C(O)=C(C(=O)Nc2ccc(Cl)cc2-c2ccc(C(F)(F)F)nc2)C(=O)N1Cc1cccc(F)c1F [Example 245] | 40%
